In patent US20230141600A1, “IMIDAZOPYRAZINE DERIVATIVES” (priority 2020, published 2023):
Structures can show the parent of a compound that is named as a salt.

system: Acinetobacter baumannii ATCC17961; experiment: 90% growth inhibitory concentration (IC90) determination, antimicrobial susceptibility testing; type: cell-based; settings: Acinetobacter baumannii, ATCC17961, 16 h, 90% growth inhibition, Iso-Sensitest broth, OD 600 nm over 16 h, 35±2° C.; read-out: ATCC 17961 IC90
How it was run: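 Twofold serial dilutions (e.g. 50 to 0.097 μM final) in Iso-Sensitest broth, inoculated at ~5×10^5 CFU/ml and incubated at 35±2 °C for 16 h with OD600 read every minute. IC90 taken from growth inhibition during the logarithmic phase.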

SMILES | IC90 [nM]
Cc1cc(Nc2nccn3c(-c4cn(C)nc4C(F)(F)F)cnc23)ccc1C(=O)N1CCN(C(=O)C[N+](C)(C)C)CC1 [Example 111, Trimethyl-[2-[4-[2-methyl-4-[[3-[1-methyl-3-(trifluoromethyl)pyrazol-4-yl]imidazo[1,2-a]pyrazin-8-yl]amino]benzoyl]piperazin-1-yl]-2-oxo-ethyl]ammonium Formate] | 2800
C[N+]1(CC2CCNC2)CCC(C(=O)N2CCN(C(=O)c3ccc(Nc4nccn5c(-c6ccc(OC(F)F)c(F)c6F)cnc45)cc3Cl)CC2)CC1 (stereo not drawn) [Example 116, [2-Chloro-4-[[3-[4-(difluoromethoxy)-2,3-difluoro-phenyl]imidazo[1,2-a]pyrazin-8-yl]amino]phenyl]-[4-[1-methyl-1-(pyrrolidin-3-ylmethyl)piperidin-1-ium-4-carbonyl]piperazin-1-yl]methanone Formate] | 81.1
CCc1cc(Nc2nccn3c(-c4ccc(OC(F)F)c(F)c4F)cnc23)ccc1C(=O)N1CC[N+](C)(CC2CCNC2)CC1 (stereo not drawn) [Example 119, [4-[[3-[4-(Difluoromethoxy)-2,3-difluoro-phenyl]imidazo[1,2-a]pyrazin-8-yl]amino]-2-ethyl-phenyl]-[4-methyl-4-(pyrrolidin-3-ylmethyl)piperazin-4-ium-1-yl]methanone Formate] | 1700
CCc1cc(Nc2nccn3c(-c4ccc(OC)c(F)c4F)cnc23)ccc1C(=O)N[C@H]1C[C@@H](NC(=O)C2CC[N+](C)(CC3CNC3)CC2)C1 (stereo partly drawn) [Example 126, 1-(Azetidin-3-ylmethyl)-N-[3-[[4-[[3-(2,3-difluoro-4-methoxy-phenyl)imidazo[1,2-a]pyrazin-8-yl]amino]-2-ethyl-benzoyl]amino]cyclobutyl]-1-methyl-piperidin-1-ium-4-carboxamide formate 2,2,2-trifluoroacetate (Mixed Salt)] | 111
CCc1cc(Nc2nccn3c(-c4ccc(OC)c(F)c4F)cnc23)ccc1C(=O)NCCCNC(=O)C1CC[N+](C)(CC2CNC2)CC1 (stereo not drawn) [Example 129, 1-(Azetidin-3-ylmethyl)-N-[3-[[4-[[3-(2,3-difluoro-4-methoxy-phenyl)imidazo[1,2-a]pyrazin-8-yl]amino]-2-ethyl-benzoyl]amino]propyl]-1-methyl-piperidin-1-ium-4-carboxamide bis(trifluoroacetate)] | 86.2
CCc1cc(Nc2nccn3c(-c4ccc(OC)c(F)c4F)cnc23)ccc1C(=O)NCCCNC(=O)CC1CC[N+](C)(CC2CNC2)CC1 (stereo not drawn) [Example 131, N-[3-[[2-[1-(Azetidin-3-ylmethyl)-1-methyl-piperidin-1-ium-4-yl]acetyl]amino]propyl]-4-[[3-(2,3-difluoro-4-methoxy-phenyl)imidazo[1,2-a]pyrazin-8-yl]amino]-2-ethyl-benzamide bis(2,2,2-trifluoroacetate)] | 114
CCc1cc(Nc2nccn3c(-c4ccc(OC)c(F)c4F)cnc23)ccc1C(=O)NC1CC[N+](C)(CC2CNC2)CC1 (stereo not drawn) [Example 136, N-[1-(Azetidin-3-ylmethyl)-1-methyl-piperidin-1-ium-4-yl]-4-[[3-(2,3-difluoro-4-methoxy-phenyl)imidazo[1,2-a]pyrazin-8-yl]amino]-2-ethyl-benzamide bis(2,2,2-trifluoroacetate)] | 955
CCc1cc(Nc2nccn3c(-c4c[nH]nc4C(F)(F)F)cnc23)ccc1C(=O)NCC1CC[N+](C)(CC2CNC2)C1 (stereo not drawn) [Example 138, N-[[1-(Azetidin-3-ylmethyl)-1-methyl-pyrrolidin-1-ium-3-yl]methyl]-2-ethyl-4-[[3-[3-(trifluoromethyl)-1H-pyrazol-4-yl]imidazo[1,2-a]pyrazin-8-yl]amino]benzamide bis(2,2,2-trifluoroacetate)] | 4140

The next lines start with the values.

IC90 [nM] | SMILES
4300 | CCc1cc(Nc2nccn3c(-c4cn(CC#N)nc4C(F)(F)F)cnc23)ccc1C(=O)NCCCCC[N+](C)(C)CC(=O)O [Example 110, Carboxymethyl-[5-[[4-[[3-[1-(cyanomethyl)-3-(trifluoromethyl)pyrazol-4-yl]imidazo[1,2-a]pyrazin-8-yl]amino]-2-ethyl-benzoyl]amino]pentyl]-dimethyl-ammonium Formate]
2560 | CCc1cc(Nc2nccn3c(-c4ccc(OC)c(F)c4F)cnc23)ccc1C(=O)NCCCCC[N+](C)(CC(=O)O)CC(=O)O [Example 112, bis(carboxymethyl)-[5-[[4-[[3-(2,3-difluoro-4-methoxy-phenyl)imidazo[1,2-a]pyrazin-8-yl]amino]-2-ethyl-benzoyl]amino]pentyl]-methyl-ammonium 2,2,2-trifluoroacetate]
2480 | CCc1cc(Nc2nccn3c(-c4cn(CC(F)F)nc4C(F)(F)F)cnc23)ccc1C(=O)NCCCCC[N+](C)(C)CC(=O)O [Example 113, Carboxymethyl-[5-[[4-[[3-[1-(2,2-difluoroethyl)-3-(trifluoromethyl)pyrazol-4-yl]imidazo[1,2-a]pyrazin-8-yl]amino]-2-ethyl-benzoyl]amino]pentyl]-dimethyl-ammonium Formate]
205 | CCc1cc(Nc2nccn3c(-c4ccc(OC)c(F)c4F)cnc23)ccc1C(=O)NCC1CC[N+](C)(CC(=O)O)CC1 (stereo not drawn) [Example 115, 2-[4-[[[4-[[3-(2,3-Difluoro-4-methoxy-phenyl)imidazo[1,2-a]pyrazin-8-yl]amino]-2-ethyl-benzoyl]amino]methyl]-1-methyl-piperidin-1-ium-1-yl]acetic acid 2,2,2-trifluoroacetate]
157 | C[N+]1(CC2CCNC2)CCC(C(=O)NCCCNC(=O)c2ccc(Nc3nccn4c(-c5ccc(OC(F)F)c(F)c5F)cnc34)cc2Cl)CC1 (stereo not drawn) [Example 117, N-[3-[[2-Chloro-4-[[3-[4-(difluoromethoxy)-2,3-difluoro-phenyl]imidazo[1,2-a]pyrazin-8-yl]amino]benzoyl]amino]propyl]-1-methyl-1-(pyrrolidin-3-ylmethyl)piperidin-1-ium-4-carboxamide Formate]
832 | CCc1cc(Nc2nccn3c(-c4ccc(Oc5ncccn5)c(F)c4F)cnc23)ccc1C(=O)NCC1CC[N+](C)(CC2CCNC2)CC1 (stereo not drawn) [Example 118, 4-[[3-(2,3-Difluoro-4-pyrimidin-2-yloxy-phenyl)imidazo[1,2-a]pyrazin-8-yl]amino]-2-ethyl-N-[[1-methyl-1-(pyrrolidin-3-ylmethyl)piperidin-1-ium-4-yl]methyl]benzamide Formate]
258 | CCc1cc(Nc2nccn3c(-c4ccc(OC)c(F)c4F)cnc23)ccc1C(=O)NCC1CC(NC(=O)C2CC[N+](C)(CC3CNC3)CC2)C1 (stereo not drawn) [Example 127, 1-(Azetidin-3-ylmethyl)-N-[3-[[[4-[[3-(2,3-difluoro-4-methoxy-phenyl)imidazo[1,2-a]pyrazin-8-yl]amino]-2-ethyl-benzoyl]amino]methyl]cyclobutyl]-1-methyl-piperidin-1-ium-4-carboxamide formate 2,2,2-trifluoroacetate (Mixed Salt)]
343 | CCc1cc(Nc2nccn3c(-c4ccc(OC)c(F)c4F)cnc23)ccc1C(=O)NCC1CC[N+](CC(=O)O)(CC2CNC2)CC1 (stereo not drawn) [Example 128, 2-[1-(Azetidin-3-ylmethyl)-4-[[[4-[[3-(2,3-difluoro-4-methoxy-phenyl)imidazo[1,2-a]pyrazin-8-yl]amino]-2-ethyl-benzoyl]amino]methyl]piperidin-1-ium-1-yl]acetic acid bis(2,2,2-trifluoroacetate)]
108 | CCc1cc(Nc2nccn3c(-c4ccc(OC)c(F)c4F)cnc23)ccc1C(=O)NCCCNC(=O)C[C@@H]1CC[N+](C)(CC2CNC2)C1 (stereo partly drawn) [Example 130, N-[3-[[2-[(3S)-1-(Azetidin-3-ylmethyl)-1-methyl-pyrrolidin-1-ium-3-yl]acetyl]amino]propyl]-4-[[3-(2,3-difluoro-4-methoxy-phenyl)imidazo[1,2-a]pyrazin-8-yl]amino]-2-ethyl-benzamide bis(2,2,2-trifluoroacetate)]
320 | CCc1cc(Nc2nccn3c(-c4ccc(OC)c(F)c4F)cnc23)ccc1C(=O)NCC1CC[N+](C)(CC(=O)NCC2CCNC2)CC1 (stereo not drawn) [Example 132, 4-[[3-(2,3-Difluoro-4-methoxy-phenyl)imidazo[1,2-a]pyrazin-8-yl]amino]-2-ethyl-N-[[1-methyl-1-[2-oxo-2-(pyrrolidin-3-ylmethylamino)ethyl]piperidin-1-ium-4-yl]methyl]benzamide bis(2,2,2-trifluoroacetate)]
350 | CCc1cc(Nc2nccn3c(-c4ccc(OC)c(F)c4F)cnc23)ccc1C(=O)NCC1CC[N+](C)(CC2CNC2)CC1 (stereo not drawn) [Example 134, N-[[1-(Azetidin-3-ylmethyl)-1-methyl-piperidin-1-ium-4-yl]methyl]-4-[[3-(2,3-difluoro-4-methoxy-phenyl)imidazo[1,2-a]pyrazin-8-yl]amino]-2-ethyl-benzamide; 2,2,2-trifluoroacetate bis(2,2,2-trifluoroacetate)]
479 | CCc1cc(Nc2nccn3c(-c4ccc(OC)c(F)c4F)cnc23)ccc1C(=O)NCC1CC[N+](C)(CC2CC[N+](C)(C)C2)CC1 (stereo not drawn) [Example 135, 4-[[3-(2,3-Difluoro-4-methoxy-phenyl)imidazo[1,2-a]pyrazin-8-yl]amino]-N-[[1-[(1,1-dimethylpyrrolidin-1-ium-3-yl)methyl]-1-methyl-piperidin-1-ium-4-yl]methyl]-2-ethyl-benzamide Diformate]

same assay, conditions: Acinetobacter baumannii, ATCC17961, 16 h, read-out: ATCC 17961 IC90

SMILES | IC90 [nM]
CCc1cc(Nc2nccn3c(-c4ccc(OC)c(F)c4F)cnc23)ccc1C(=O)NCC1CCN(C(=O)C2CC[N+](C)(CC3CNC3)CC2)CC1 (stereo not drawn) [Example 133, N-[[1-[1-(Azetidin-3-ylmethyl)-1-methyl-piperidin-1-ium-4-carbonyl]-4-piperidyl]methyl]-4-[[3-(2,3-difluoro-4-methoxy-phenyl)imidazo[1,2-a]pyrazin-8-yl]amino]-2-ethyl-benzamide bis(2,2,2-trifluoroacetate)] | 334
